Values of other authors as cited in patent publication US20120003119A1, “ANTIMICROBIAL PEPTIDES” (priority 2007, published 2012).

Experiments:
[1] = tested on: animal red blood cells; details: melittin isolated from bee venom
[2] = combined with either magainin I or magainin II in a 1:1 molar ratio
[3] = tested on: Pseudomonas aeruginosa; details: tested against the bacteria Pseudomonas aeruginosa; relative to XPF

Compound | lytic to both microorganisms and animal red blood cells [1] | antimicrobial activity increased [2] | times more active than XPF [3]
CC[C@H](C)[C@H](NC(=O)CN)C(=O)NCC(=O)N[C@@H](C)C(=O)N[C@H](C(=O)N[C@@H](CC(C)C)C(=O)N[C@@H](CCCCN)C(=O)N[C@H](C(=O)N[C@@H](CC(C)C)C(=O)N[C@H](C(=O)N[C@H](C(=O)NCC(=O)N[C@@H](CC(C)C)C(=O)N1CCC[C@H]1C(=O)N[C@@H](C)C(=O)N[C@@H](CC(C)C)C(=O)N[C@H](C(=O)N[C@@H](CO)C(=O)N[C@@H](Cc1c[nH]c2ccccc12)C(=O)N[C@H](C(=O)N[C@@H](CCCCN)C(=O)N[C@@H](CCCNC(=N)N)C(=O)N[C@@H](CCCCN)C(=O)N[C@@H](CCCNC(=N)N)C(=O)N[C@@H](CCC(N)=O)C(=O)N[C@@H](CCC(N)=O)C(N)=O)[C@@H](C)CC)[C@@H](C)CC)[C@@H](C)O)[C@@H](C)O)C(C)C)C(C)C [melittin] | very lytic |  | 
PGLa |  | 20-50 fold | 4-5 times
